Measured values taken from the supplement of paper PMC10307832.

Columns and labels:
Assay in all cases: relative viability (nuclei count vs DMSO), 5 days (fraction); higher = more cells survive
TPCA-1 + AZD7762 = compound: C1=CC(=CC=C1C2=CC(=C(S2)NC(=O)N)C(=O)N)F [TPCA-1] + NC(=O)Nc1cc(-c2cccc(F)c2)sc1C(=O)N[C@H]1CCCNC1 [AZD7762] (partner 0.2 µM)
Procedure, shortened: (§1)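 Five library-drug doses in √10 steps were combined with a fixed anchor-drug dose, or a single drug was given alone, by pin tool to lung cancer cell lines in 1536-well plates the day after seeding. Nuclei were stained and counted after 5 days. Relative viability is the nuclei count in treated wells over that in vehicle wells, taken as the median of duplicate plates.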

[1] = compound: C[C@]12O[C@H](C[C@]1(O)CO)n1c3ccccc3c3c4c(c5c6ccccc6n2c5c31)CNC4=O [Lestaurtinib] + Nc1ncn([C@H]2C[C@H](O)[C@@H](CO)O2)c(=O)n1 [Decitabine] (partner 2 µM)
Procedure, shortened: as §1

TPCA-1 + Phenformin = compound: C1=CC(=CC=C1C2=CC(=C(S2)NC(=O)N)C(=O)N)F [TPCA-1] + N=C(N)NC(=N)NCCc1ccccc1 [Phenformin] (partner 250 µM)
Procedure, shortened: as §1

TPCA-1 + Dasatinib = compound: C1=CC(=CC=C1C2=CC(=C(S2)NC(=O)N)C(=O)N)F [TPCA-1] + Cc1nc(Nc2ncc(C(=O)Nc3c(C)cccc3Cl)s2)cc(N2CCN(CCO)CC2)n1 [Dasatinib] (partner 0.075 µM)
Procedure, shortened: as §1

| Cell Line | relative viability (TPCA-1 + AZD7762; first compound 0.04 µM) | relative viability (TPCA-1 + AZD7762; first compound 0.1265 µM) | relative viability (TPCA-1 + AZD7762; first compound 0.4 µM) | relative viability (TPCA-1 + AZD7762; first compound 1.265 µM) | relative viability (TPCA-1 + AZD7762; first compound 4 µM) | relative viability ([1]; first compound 0.005 µM) | relative viability ([1]; first compound 0.01581 µM) | relative viability ([1]; first compound 0.05 µM) | relative viability ([1]; first compound 0.1581 µM) | relative viability ([1]; first compound 0.5 µM) | relative viability (TPCA-1 + Phenformin; first compound 0.04 µM) | relative viability (TPCA-1 + Phenformin; first compound 0.1265 µM) | relative viability (TPCA-1 + Phenformin; first compound 0.4 µM) | relative viability (TPCA-1 + Phenformin; first compound 1.265 µM) | relative viability (TPCA-1 + Phenformin; first compound 4 µM) | relative viability (TPCA-1 + Dasatinib; first compound 0.04 µM) | relative viability (TPCA-1 + Dasatinib; first compound 0.1265 µM) | relative viability (TPCA-1 + Dasatinib; first compound 0.4 µM) | relative viability (TPCA-1 + Dasatinib; first compound 1.265 µM) | relative viability (TPCA-1 + Dasatinib; first compound 4 µM) |
| --- | --- | --- | --- | --- | --- | --- | --- | --- | --- | --- | --- | --- | --- | --- | --- | --- | --- | --- | --- | --- |
| HCC-827 | 0.209 | 0.209 | 0.227 | 0.224 | 0.181 | 0.298 | 0.38 | 0.331 | 0.367 | 0.282 | 0.384 | 0.385 | 0.404 | 0.367 | 0.353 | 0.299 | 0.199 | 0.391 | 0.293 | 0.155 |
| HOP-62 | 0.554 | 0.557 | 0.669 | 0.523 | 0.436 | 0.171 | 0.231 | 0.273 | 0.323 | 0.211 | 0.692 | 0.64 | 0.684 | 0.603 | 0.485 | 0.874 | 0.642 | 0.689 | 0.539 | 0.671 |
| LC-2-ad | 0.883 | 0.803 | 0.837 | 0.83 | 0.221 | 0.912 | 0.829 | 0.755 | 0.654 | 0.476 | 0.679 | 0.523 | 0.607 | 0.575 | 0.319 | 0.79 | 0.417 | 0.544 | 0.524 | 0.212 |
| LCLC-97TM1 | 0.231 | 0.237 | 0.223 | 0.164 | 0.217 | – | 0.242 | 0.207 | 0.245 | 0.257 | 0.44 | 0.394 | 0.414 | 0.294 | 0.386 | 0.94 | 0.679 | 0.772 | 0.658 | 0.717 |
| LCLC-103H | 0.896 | 0.84 | 0.824 | 0.617 | 0.8 | 0.783 | 0.79 | 0.687 | 0.534 | 0.703 | 0.335 | 0.321 | 0.345 | 0.332 | 0.357 | 0.518 | 0.447 | 0.481 | 0.397 | 0.465 |
| LK-2 | 0.593 | – | 0.53 | 0.392 | 0.131 | 0.281 | 0.462 | 0.239 | 0.224 | 0.145 | 0.868 | 0.236 | 0.444 | 0.603 | 0.206 | 0.255 | 0.226 | 0.386 | 0.241 | 0.237 |
| LOU-NH91 | 0.781 | 0.719 | 0.724 | 0.68 | 0.697 | 0.818 | 0.816 | 0.804 | 0.679 | 0.659 | 0.712 | 0.677 | 0.73 | 0.599 | 0.664 | 0.558 | 0.558 | 0.38 | 0.43 | 0.52 |
| LU99A | 0.356 | 0.364 | 0.412 | 0.281 | 0.247 | 0.711 | 0.84 | 0.572 | 0.366 | 0.276 | 0.989 | 0.82 | 0.835 | 0.646 | 0.603 | 0.509 | 0.522 | 0.619 | 0.356 | 0.366 |
| NCI-H520 | – | – | – | – | – | 0.62 | 0.59 | 0.502 | 0.327 | 0.247 | 0.872 | 0.473 | 0.844 | 0.579 | 0.177 | 0.219 | 0.187 | 0.223 | 0.18 | 0.176 |
| NCI-H661 | – | – | – | – | – | 0.552 | 0.59 | 0.52 | 0.502 | 0.33 | 0.281 | 0.272 | 0.269 | 0.306 | 0.253 | 1 | 0.838 | 0.928 | 0.806 | 0.394 |
| NCI-H1563 | – | – | – | – | – | – | – | – | – | – | 0.712 | 0.653 | 0.712 | 0.603 | 0.667 | 0.42 | 0.453 | 0.468 | 0.455 | 0.452 |
| NCI-H1623 | – | – | – | – | – | – | – | – | – | – | 0.592 | 0.522 | 0.62 | 0.574 | 0.4 | 0.523 | 0.466 | 0.576 | 0.62 | 0.336 |
| NCI-H1648 | 0.807 | 0.682 | 0.684 | 0.806 | 0.668 | – | 0.535 | – | 0.762 | 0.512 | – | – | – | – | – | – | – | – | – | – |
| NCI-H1650 | – | – | – | – | – | 0.441 | 0.623 | 0.457 | 0.506 | 0.54 | 0.452 | – | 0.487 | 0.469 | 0.386 | 0.361 | – | 0.336 | 0.269 | 0.269 |
| NCI-H1703 | 0.132 | 0.118 | 0.136 | – | 0.122 | – | – | – | – | – | – | – | – | – | – | – | – | – | – | – |
| NCI-H2009 | – | – | – | – | – | 0.373 | 0.392 | 0.399 | 0.36 | 0.347 | 0.542 | 0.486 | 0.512 | 0.429 | 0.44 | 0.395 | 0.267 | 0.278 | 0.223 | 0.177 |
| NCI-H2023 | – | – | – | – | – | 0.241 | 0.254 | 0.231 | 0.183 | 0.105 | 0.488 | 0.423 | 0.476 | 0.359 | 0.269 | 0.731 | 0.521 | 0.527 | 0.508 | 0.216 |
| NCI-H2228 | – | – | – | – | – | – | – | – | – | – | 0.396 | 0.292 | 0.412 | 0.285 | 0.272 | 0.669 | 0.491 | 0.521 | 0.386 | 0.301 |
| SK-LU-1 | – | – | – | – | – | 0.634 | 0.607 | 0.48 | 0.424 | 0.349 | 0.719 | 0.461 | 0.662 | 0.44 | 0.238 | 0.217 | 0.189 | 0.209 | 0.183 | 0.173 |
| SK-MES-1 | – | – | – | – | – | 0.36 | 0.441 | 0.321 | 0.282 | 0.142 | 0.679 | 0.612 | 0.668 | 0.596 | 0.498 | 0.491 | 0.251 | 0.333 | 0.224 | 0.152 |
| SW 1573 | – | – | – | – | – | 0.562 | 0.601 | 0.45 | 0.352 | 0.103 | 0.341 | 0.323 | 0.411 | 0.296 | 0.331 | 0.669 | 0.375 | 0.476 | 0.361 | 0.336 |
